Results taken from PubChem BioAssay (NCI).
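How tested: cells in 96-well plates exposed to compound for 48 hours at five concentrations. At the GI50, growth is halved. TGI denotes the concentration required for complete inhibition of growth.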

Legend:
Test in all cases: NCI tumour cell line growth inhibition, 48 h
M14 melanoma = tested on: M14 melanoma
UO-31 renal = tested on: UO-31 renal
SR leukemia = tested on: SR leukemia
OVCAR-8 ovarian = tested on: OVCAR-8 ovarian
HOP-62 NSCLC = tested on: HOP-62 NSCLC
OVCAR-5 ovarian = tested on: OVCAR-5 ovarian
SN12C renal = tested on: SN12C renal
EKVX NSCLC = tested on: EKVX NSCLC
SK-MEL-2 melanoma = tested on: SK-MEL-2 melanoma
RPMI-8226 leukemia = tested on: RPMI-8226 leukemia

SMILES	GI50 (M14 melanoma)	TGI (M14 melanoma)	GI50 (UO-31 renal)	TGI (UO-31 renal)	GI50 (SR leukemia)	TGI (SR leukemia)	GI50 (OVCAR-8 ovarian)	TGI (OVCAR-8 ovarian)	GI50 (HOP-62 NSCLC)	TGI (HOP-62 NSCLC)	GI50 (OVCAR-5 ovarian)	TGI (OVCAR-5 ovarian)	GI50 (SN12C renal)	TGI (SN12C renal)	GI50 (EKVX NSCLC)	TGI (EKVX NSCLC)	GI50 (SK-MEL-2 melanoma)	TGI (SK-MEL-2 melanoma)	GI50 (RPMI-8226 leukemia)	TGI (RPMI-8226 leukemia)
CCn1c(-c2nonc2N)nc2ccc(F)cc21	> 25 µM	> 25 µM	> 25 µM	> 25 µM	> 25 µM	> 25 µM	> 25 µM	> 25 µM	> 25 µM	> 25 µM	> 25 µM	> 25 µM	> 25 µM	> 25 µM	> 22.2 µM	> 25 µM	> 25 µM	> 25 µM	> 25 µM	> 25 µM
COc1ccc(C2=NC(C)(C)CO2)cc1						> 100 µM		> 100 µM		> 100 µM		> 100 µM		> 100 µM		> 100 µM		> 100 µM		> 100 µM
Clc1ccc(OCc2nnc3n2N=C(c2ccc(Cl)cc2Cl)CS3)c(Cl)c1	22.7 µM	51 µM	18.2 µM	47.5 µM	17.3 µM	46.5 µM	27.7 µM	66.2 µM	27.8 µM	78.6 µM	31.4 µM	> 100 µM	14.2 µM	32.3 µM	26.2 µM	74.1 µM	25.1 µM	57 µM	23.4 µM	63.7 µM
COc1ccccc1C(=O)c1ccc2ccccc2c1		58.1 µM		64.7 µM		16.1 µM		75.9 µM		> 100 µM		> 100 µM		> 100 µM		77.8 µM		37.5 µM		97.5 µM
Oc1c(Br)cc(CN(Cc2cc(Br)c(O)c(Br)c2)C2CCCCC2)cc1Br		> 100 µM		> 100 µM		> 100 µM		> 100 µM		> 100 µM		> 100 µM		> 100 µM		> 100 µM		> 100 µM		> 100 µM
O=C(c1ccccc1)[C@H]1Nc2cnccc2C2c3ccccc3CC21 (some centres undefined)		19.9 µM		> 40.4 µM		61.6 µM		33.9 µM		> 71.4 µM		74.1 µM		31.8 µM		71 µM		29.9 µM		34.4 µM
CCCCCCNc1nc(NCCCCCC)c2[nH]c(NCCCCCC)nc2n1	14.1 µM	27.9 µM	14 µM	35 µM	0.582 µM	3.43 µM	9.96 µM	30.8 µM	18.5 µM	33 µM	9.31 µM	24.7 µM	3.75 µM	17.6 µM	5.51 µM	30 µM	11.5 µM	28.7 µM	1.86 µM	10.3 µM
N#CC(C#N)=Cc1cccc(Oc2ccccc2)c1		40.4 µM		30.8 µM		61.3 µM		> 31.6 µM		64.6 µM		> 100 µM		48.9 µM		> 100 µM		49 µM		62.5 µM
CCCCCC(=O)Oc1ccc(/C(=C(\C)c2ccc(OC)cc2)c2ccc(OCCN3CCCCC3)cc2)cc1	2.02 µM	4.37 µM	3 µM	14.4 µM	2.71 µM	22.2 µM	12.8 µM	29.6 µM	5.73 µM	19.8 µM	12.7 µM	27 µM	10.8 µM	23.5 µM	9.92 µM	22.7 µM	10.5 µM	23.8 µM	3.24 µM	
COc1ccc2c(c1)[C@@]13CCN4CC5=CCO[C@H]6CC(=O)N2[C@H]1[C@H]6[C@H]5C[C@H]43		> 100 µM		> 100 µM		> 100 µM		> 100 µM		> 100 µM		> 100 µM		> 100 µM		> 100 µM		> 100 µM		> 100 µM
Cc1c(C(=O)NN)nnn1-c1ccnc2c(C(F)(F)F)cccc12	> 100 µM	> 100 µM	> 100 µM	> 100 µM	> 100 µM	> 100 µM	> 100 µM	> 100 µM	> 100 µM	> 100 µM	> 100 µM	> 100 µM	76.5 µM	> 100 µM	> 100 µM	> 100 µM	> 100 µM	> 100 µM	> 100 µM	> 100 µM
Nc1ccc(SC23CC4CC(CC(C4)C2)C3)cc1		> 100 µM		> 100 µM		> 100 µM		> 100 µM		> 100 µM		> 100 µM		> 100 µM		> 100 µM		> 100 µM		> 100 µM
Cc1ccc(C(=O)CC(Sc2cccc(Cl)c2Cl)c2ccc(Cl)cc2)cc1C (centres undefined)	26.7 µM	65.1 µM	20 µM	40.9 µM	7.23 µM	> 100 µM	24.6 µM	74 µM	24.2 µM	60.6 µM	22.4 µM	59.8 µM	16.1 µM	32.7 µM	21.6 µM	42.1 µM	20.2 µM	39 µM	5.76 µM	48.2 µM
CN(C)c1nc(-c2cccs2)n2nc(-c3ccc(Cl)cc3)cc2n1					> 100 µM	> 100 µM	3.59 µM	> 100 µM	2.27 µM	6.53 µM	> 100 µM	> 100 µM	> 100 µM	> 100 µM	4.38 µM	> 100 µM	9.03 µM	> 100 µM	> 100 µM	> 100 µM
COc1ccc2c(c1)C=CC(C#N)N2C(=O)c1ccccc1 (centres undefined)			< 0.01 µM	> 100 µM	< 0.01 µM	> 100 µM	< 0.01 µM	> 100 µM	< 0.01 µM	> 100 µM		> 100 µM	< 0.0119 µM	> 100 µM	< 0.01 µM	> 100 µM	< 0.01 µM	> 100 µM	< 0.01 µM	> 100 µM
Clc1ccc(CNc2nc3ccccc3nc2-c2cccs2)c(Cl)c1				> 100 µM		> 100 µM		> 100 µM		> 100 µM		> 100 µM		> 100 µM		> 100 µM		> 100 µM		> 100 µM
